Source: US20150031668A1, “CHROMAN DERIVATIVES AS TRPM8 INHIBITORS” (AMGEN INC., priority 2013, published 2015)

Molecular target: T1, human TRPM8 (Homo sapiens, UniProt Q7Z2W7)
T1 construct: expressed in transfected cells; host or cells: Chinese hamster ovary (CHO) cells, T-REx tetracycline-inducible expression system (Invitrogen); co-transfected with pcDNA3.1 aequorin
Assay: Luminescence readout assay for measuring intracellular calcium (aequorin, CHO cells expressing human TRPM8; icilin, L-menthol or cold activation)
Assay type: cell-based
Conditions: CHO cells expressing human TRPM8, icilin activation (1 μM), aequorin luminescence; read-out: hTRPM8 IC50
Outline: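 Activation was by 1 μM icilin, 100 μM L-menthol (test compound 2.5 min ahead) or cold buffer below 10° C (compound 1 min ahead). Calcium rise measured as aequorin luminescence in CHO cells with tetracycline-inducible human TRPM8.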

T1 sequence (Q7Z2W7 whole entry): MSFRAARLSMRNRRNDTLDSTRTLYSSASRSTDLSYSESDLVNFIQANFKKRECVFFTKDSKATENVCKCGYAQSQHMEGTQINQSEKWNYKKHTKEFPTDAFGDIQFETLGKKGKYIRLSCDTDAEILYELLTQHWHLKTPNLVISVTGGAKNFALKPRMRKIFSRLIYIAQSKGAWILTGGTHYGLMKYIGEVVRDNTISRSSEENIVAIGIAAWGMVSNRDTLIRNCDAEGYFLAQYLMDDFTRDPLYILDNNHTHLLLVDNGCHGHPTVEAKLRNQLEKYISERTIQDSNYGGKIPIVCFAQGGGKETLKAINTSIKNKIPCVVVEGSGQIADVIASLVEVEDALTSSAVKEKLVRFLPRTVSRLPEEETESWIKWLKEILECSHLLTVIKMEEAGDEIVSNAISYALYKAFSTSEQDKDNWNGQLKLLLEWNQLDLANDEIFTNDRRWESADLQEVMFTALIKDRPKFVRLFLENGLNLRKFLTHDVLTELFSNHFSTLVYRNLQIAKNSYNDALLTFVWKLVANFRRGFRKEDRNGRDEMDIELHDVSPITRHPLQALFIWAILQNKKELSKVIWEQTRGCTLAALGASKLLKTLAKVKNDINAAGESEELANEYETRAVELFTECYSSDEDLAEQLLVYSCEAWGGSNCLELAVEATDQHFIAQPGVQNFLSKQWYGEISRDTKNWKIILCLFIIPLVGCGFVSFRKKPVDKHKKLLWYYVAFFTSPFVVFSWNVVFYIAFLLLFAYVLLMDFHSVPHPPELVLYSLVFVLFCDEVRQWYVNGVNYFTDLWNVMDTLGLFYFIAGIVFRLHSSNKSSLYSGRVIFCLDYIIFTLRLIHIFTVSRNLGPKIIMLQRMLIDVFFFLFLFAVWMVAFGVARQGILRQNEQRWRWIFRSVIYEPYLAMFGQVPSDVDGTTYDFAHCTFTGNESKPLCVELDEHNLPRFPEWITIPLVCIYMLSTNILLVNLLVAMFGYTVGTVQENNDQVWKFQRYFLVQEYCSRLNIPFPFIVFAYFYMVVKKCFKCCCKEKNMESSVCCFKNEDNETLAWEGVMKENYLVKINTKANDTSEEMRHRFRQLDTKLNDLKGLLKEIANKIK

IC50 | SMILES
28 nM | CNc1cc(C(=O)N[C@]2(c3ccc(OC(F)(F)F)c(F)c3)CCOc3cccnc32)cc(F)c1C(=O)O [Example 304, (S)-2-fluoro-4-((4-(3-fluoro-4-(trifluoromethoxy)phenyl)-3,4-dihydro-2H-pyrano[3,2-b]pyridin-4-yl)carbamoyl)-6-(methylamino)benzoic acid]
15 nM | COC(=O)c1ccc(C(=O)N[C@]2(c3ccc(OC(F)(F)F)c(F)c3)CCOc3cccnc32)n1C [Example 305, (S)-methyl 5-((4-(3-fluoro-4-(trifluoromethoxy)phenyl)-3,4-dihydro-2H-pyrano[3,2-b]pyridin-4-yl)carbamoyl)-1-methyl-1H-pyrrole-2-carboxylate]
159 nM | O=C(O)c1ccc(C(=O)N[C@]2(c3ccc(OC(F)(F)F)c(F)c3)CCOc3cccnc32)[nH]1 [Example 306, (S)-5-((4-(3-fluoro-4-(trifluoromethoxy)phenyl)-3,4-dihydro-2H-pyrano[3,2-b]pyridin-4-yl)carbamoyl)-1H-pyrrole-2-carboxylic acid]
631 nM | O=C(NS(=O)(=O)c1ccccc1)c1ccc(C(=O)N[C@]2(c3ccc(OC(F)(F)F)c(F)c3)CCOc3cccnc32)nc1 [Example 307, (S)—N2-(4-(3-fluoro-4-(trifluoromethoxy)phenyl)-3,4-dihydro-2H-pyrano[3,2-b]pyridin-4-yl)-N5-(phenylsulfonyl)pyridine-2,5-dicarboxamide 2,2,2-trifluoroacetate]
11 nM | O=C(N[C@]1(c2ccc(OC(F)(F)F)c(F)c2)CCOc2cccnc21)c1ccco1 [Example 308, (S)—N-(4-(3-fluoro-4-(trifluoromethoxy)phenyl)-3,4-dihydro-2H-pyrano[3,2-b]pyridin-4-yl)furan-2-carboxamide]
55 nM | CNC(=O)c1cccc(C(=O)N[C@]2(c3ccc(OC(F)(F)F)c(F)c3)CCOc3cccnc32)c1 [Example 309, (S)—N1-(4-(3-fluoro-4-(trifluoromethoxy)phenyl)-3,4-dihydro-2H-pyrano[3,2-b]pyridin-4-yl)-N3-methylisophthalamide]
155 nM | Cc1cc(C(=O)N[C@]2(c3ccc(OC(F)(F)F)c(F)c3)CCOc3cccnc32)cc(C)c1C(=O)O [Example 311, (S)-4-((4-(3-fluoro-4-(trifluoro-methoxy)phenyl)-3,4-dihydro-2H-pyrano[3,2-b]pyridin-4-yl)carbamoyl)-2,6-dimethylbenzoic acid]
104 nM | O=C(O)c1ccc(C(=O)N[C@]2(c3ccc(OC(F)(F)F)cc3F)CCOc3cccnc32)nc1 [Example 312, (S)-6-((4-(2-fluoro-4-(trifluoro-methoxy)phenyl)-3,4-dihydro-2H-pyrano[3,2-b]pyridin-4-yl)carbamoyl) nicotinic acid]
834 nM | COc1ccc(C(=O)N[C@]2(c3ccc(OC(F)(F)F)c(F)c3)CCOc3cccnc32)cc1C(=O)O [Example 315, (S)-5-((4-(3-fluoro-4-(trifluoromethoxy)phenyl)-3,4-dihydro-2H-pyrano[3,2-b]pyridin-4-yl)carbamoyl)-2-methoxybenzoic acid]
89 nM | COc1ccc(C(=O)O)cc1C(=O)N[C@]1(c2ccc(OC(F)(F)F)c(F)c2)CCOc2cccnc21 [Example 316, (S)-3-((4-(3-fluoro-4-(trifluoro-methoxy)phenyl)-3,4-dihydro-2H-pyrano[3,2-b]pyridin-4-yl)carbamoyl)-4-methoxybenzoic acid]
3340 nM | O=C(O)c1ccc(S(=O)(=O)N[C@]2(c3ccc(OC(F)(F)F)c(F)c3)CCOc3cccnc32)cc1 [Example 317, (S)-4-(N-(4-(3-fluoro-4-(trifluoro-methoxy)phenyl)-3,4-dihydro-2H-pyrano[3,2-b]pyridin-4-yl)sulfamoyl) benzoic acid]
3700 nM | O=C(N[C@]1(c2ccc(OC(F)(F)F)c(F)c2)CCOc2cccnc21)c1c[nH]c(C(=O)O)c1 [Example 320, (S)-4-((4-(3-fluoro-4-(trifluoro-methoxy)phenyl)-3,4-dihydro-2H-pyrano[3,2-b]pyridin-4-yl)carbamoyl)-1H-pyrrole-2-carboxylic acid]
